PubChem BioAssay (NCI)
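Five compound concentrations were applied to cells in 96-well plates for 48 hours; endpoints were derived by simple linear interpolation of the resulting dose-response curve. GI50 marks 50% less growth. TGI is the concentration that stops growth completely.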

Key:
Assay in all cases: NCI tumour cell line growth inhibition, 48 h
A498 renal = tested on: A498 renal
EKVX NSCLC = tested on: EKVX NSCLC
HCT-15 colon = tested on: HCT-15 colon
HOP-92 NSCLC = tested on: HOP-92 NSCLC
MALME-3M melanoma = tested on: MALME-3M melanoma
NCI-H226 lung = tested on: NCI-H226 lung
SF-539 CNS = tested on: SF-539 CNS
SK-MEL-5 melanoma = tested on: SK-MEL-5 melanoma
SN12C renal = tested on: SN12C renal
UACC-62 melanoma = tested on: UACC-62 melanoma

Row | SMILES | GI50 (A498 renal) | TGI (A498 renal) | GI50 (EKVX NSCLC) | TGI (EKVX NSCLC) | GI50 (HCT-15 colon) | TGI (HCT-15 colon) | GI50 (HOP-92 NSCLC) | TGI (HOP-92 NSCLC) | GI50 (MALME-3M melanoma) | TGI (MALME-3M melanoma) | GI50 (NCI-H226 lung) | TGI (NCI-H226 lung) | TGI (SF-539 CNS) | GI50 (SK-MEL-5 melanoma) | TGI (SK-MEL-5 melanoma) | GI50 (SN12C renal) | TGI (SN12C renal) | GI50 (UACC-62 melanoma) | TGI (UACC-62 melanoma) | GI50 (SF-539 CNS)
1 | COc1ccc2nc3cc(Cl)ccc3c(Sc3ccc([N+](=O)[O-])cc3)c2c1 | > 100 µM | > 100 µM | > 100 µM | > 100 µM | > 100 µM | > 100 µM | > 100 µM | > 100 µM | > 100 µM | > 100 µM | > 100 µM | > 100 µM | > 10 µM | > 100 µM | > 100 µM | > 100 µM | > 100 µM | > 100 µM | > 100 µM | –
2 | O=c1ssc(Cl)c1Cl | – | > 10 µM | – | > 10 µM | – | > 10 µM | – | > 10 µM | – | 9.77 µM | – | > 10 µM | > 10 µM | – | > 10 µM | – | > 10 µM | – | > 10 µM | –
3 | CC(=O)OC12COC1CC(O)C1(C)C(=O)C(O)C3=C(C)C(O)CC(O)(C(OC(=O)c4ccccc4)C21)C3(C)C (centres undefined) | – | > 100 µM | – | > 100 µM | – | > 100 µM | – | > 100 µM | – | > 100 µM | – | > 100 µM | 5.51 µM | – | 29.5 µM | – | > 100 µM | – | > 100 µM | –
4 | Oc1cc2ccccc2c(-c2c(O)c(O)cc3ccccc23)c1O | 1.14 µM | 10.5 µM | 1.87 µM | > 44.4 µM | 0.323 µM | 14.8 µM | 1.87 µM | 16.3 µM | 3.85 µM | 21.4 µM | 3.83 µM | 26.6 µM | 5.46 µM | 1.1 µM | 4.49 µM | 1.99 µM | 15.8 µM | 1.26 µM | 4.23 µM | 1.68 µM
5 | CCCCCCCCCCCCOC1C(CNC(=O)C2OC3OC(C)(C)OC3C2NC(=O)Nc2ccc(CC(=O)NC(Cc3ccccc3)C(=O)O)cc2)OC2OC(C)(C)OC21 (centres undefined) | > 25 µM | > 25 µM | > 25 µM | > 25 µM | > 25 µM | > 25 µM | > 25 µM | > 25 µM | > 25 µM | > 25 µM | > 25 µM | > 25 µM | > 25 µM | > 25 µM | > 25 µM | > 25 µM | > 25 µM | > 25 µM | > 25 µM | > 25 µM
6 | O=C(O)c1ccc(C(=O)O)c(C(=O)Nc2ccc3c(c2)C(=O)c2ccccc2-3)c1 | – | > 100 µM | – | > 100 µM | – | > 100 µM | – | > 100 µM | – | > 100 µM | – | > 100 µM | > 100 µM | – | > 100 µM | – | > 100 µM | – | > 100 µM | –
7 | NN1C(=O)C(CCO)S/C1=N/N=C1/SC(CCO)C(=O)N1N (centres undefined) | – | > 100 µM | – | > 100 µM | – | > 100 µM | – | > 100 µM | – | > 100 µM | – | > 100 µM | > 100 µM | – | > 100 µM | – | > 100 µM | – | > 100 µM | –
8 | COc1cc(C(=O)N/N=C/c2ccc(N(C)C)cc2)cc(OC)c1OC | 0.172 µM | 0.799 µM | > 100 µM | > 100 µM | 0.447 µM | > 100 µM | 0.143 µM | 2.28 µM | 0.582 µM | > 100 µM | 4.68 µM | > 100 µM | 5.25 µM | 0.198 µM | 1.16 µM | 1.1 µM | > 100 µM | 0.417 µM | > 100 µM | 0.3 µM
9 | O=C1c2cccc(NCCN=Cc3ccccc3O)c2C(=O)c2c(NCCN=Cc3ccccc3O)cccc21 | 1.11 µM | 2.6 µM | 1.87 µM | 8.39 µM | 2.23 µM | 12 µM | 0.584 µM | 2.49 µM | 1.01 µM | 2.86 µM | 0.571 µM | 6 µM | 4.57 µM | 1.55 µM | 4.03 µM | 0.269 µM | 2.05 µM | 1.59 µM | 4.86 µM | 1.48 µM
10 | N#C[Se]CCCNS(=O)(=O)C1CC2C=CC1C2 (centres undefined) | 0.652 µM | 2.09 µM | 0.491 µM | 1.84 µM | 1.47 µM | 3.65 µM | 1.17 µM | 2.7 µM | 0.416 µM | 1.87 µM | 0.267 µM | 0.674 µM | 1.56 µM | 1.41 µM | 2.95 µM | 0.494 µM | 1.44 µM | 1.59 µM | 3.38 µM | 0.413 µM
11 | COc1cc2c(cc1OC)C1Cc3cc(OC)c(OC)cc3C(C2)N1C | – | > 100 µM | – | > 100 µM | – | > 100 µM | – | > 75 µM | – | > 100 µM | – | > 75 µM | > 75 µM | – | > 100 µM | – | > 100 µM | – | > 75 µM | –
12 | CC(C)NC(=O)CCN(C(=O)O)S(=O)(=O)c1ccc(NC(=O)c2ccccc2)cc1 | – | > 100 µM | – | > 100 µM | – | > 59.8 µM | – | > 100 µM | – | > 100 µM | – | > 100 µM | 67.5 µM | – | > 100 µM | – | > 100 µM | – | > 82.7 µM | –
13 | CCN(CC)C1CCC(Nc2c(C(C)=O)cnc3ccc(-c4ccc(O)c(Cl)c4)cc23)CC1 (centres undefined) | 2.19 µM | 6.84 µM | 1.82 µM | > 47.2 µM | 0.301 µM | 9.62 µM | 0.227 µM | 4.27 µM | 0.941 µM | 16.9 µM | 2.16 µM | 22.6 µM | 7.87 µM | 0.782 µM | 4.55 µM | 0.45 µM | > 60 µM | 3.47 µM | 25.4 µM | 0.551 µM
14 | COc1cc(/C=C/C(=O)N2CCN(C(=O)c3cc(OC)c(OC)c(OC)c3)CC2)ccc1OCCCOc1cc2c(cc1OC)C(=O)N1CCC[C@H]1C=N2 | 0.205 µM | 0.51 µM | 0.794 µM | 4.56 µM | 3.18 µM | 27.7 µM | 0.297 µM | 7.46 µM | 0.175 µM | 0.319 µM | 0.286 µM | 1.19 µM | 0.578 µM | 0.193 µM | 0.415 µM | 0.303 µM | 21.8 µM | 0.162 µM | 0.338 µM | 0.248 µM
